Experiments:
Human ACC2 = target: T1, Human ACC2 (Homo sapiens, UniProt O00763); test: in vitro enzymatic ACC activity assay (malachite green, absorbance at 620 nm), ACC2; type: biochemical; details: recombinant His-tagged human ACC2, 6.4 μg/mL; same method as ACC1
T1 construct: made in house; host or cells: SF-9 insect cells (baculovirus, pFAST-BacHTa)
Experimental: (§1) Provided in Example A is an in vitro enzymatic ACC activity assay for activity against ACC. The binding affinity of the test compound to ACC1 or ACC2 is determined by the changes in absorbance (at 620 nm); […]. It should be noted that a variety of other expression systems and hosts are also suitable for the expression of ACC, as would be readily appreciated by one of skill in the art.
B. Purification of Human ACC2
Human ACC2 cDNA except coding region for mitochondria localization sequence was amplified from human skeletal muscle cDNA by polymerase chain reaction using primers; 5′[…]3′ (SEQ ID NO: 3) and 5′[…]3′ (SEQ ID NO: 4). The amplified DNA fragment was digested by SalI and AflIII, and cloned into pFAST-BacHTa (Invitrogen). Preparation of recombinant vaculovirus, infection of the virus to SF-9 cells and purification of recombinant ACC2 protein with 6×His-tag at the N-terminal were performed in the same method as described above.
(§2) C. Measurement of ACC Activity
(§3) Malachite green solution was prepared by mixing 100 mL of solution A (0.12% malachite green in 5N H2SO4), 25 mL of solution B (7.5% ammonium molybdate) and 2 mL of solution C (11% TWEEN-20).
(§4) ACC1 was diluted to 8 μg/mL in reaction buffer (50 mM HEPES pH7.5, 10 mM MgCl2, 10 mM tripotassium citrate, 2 mM DTT, 0.75 mg/mL fatty acid free BSA) and 10 μL diluted enzyme solution was pored into each well of 384-well clear bottom plate. Test compound was diluted in the reaction buffer and 5 μL of the compound solution was added into each well, and the mixture was incubated at 30° C. for 60 minutes. Reaction was initiated by addition of 5 μL substrate solution (50 mM KHCO3, 200 μM ATP, 200 μM acetyl-CoA). After incubation at 30° C. for 20 minutes, reaction was terminated by addition of 5 μL malachite green solution and absorbance at 620 nm was measured.
ACC2 was diluted to 6.4 μg/mL in reaction buffer, and the activity was measured by the same method as described for ACC1.
(§5) Percent activity at each concentration of compound was calculated from the following equation:
(§6) [formula] where Abs is absorbance, Avg is average.
(§7) Data were subjected to nonlinear regression analysis using GraphPad Prism Software (GraphPad Software Inc.) to obtain IC50 values.

Human ACC1 = target: T2, Human ACC1 (Homo sapiens, UniProt Q13085); test: in vitro enzymatic ACC activity assay (malachite green, absorbance at 620 nm), ACC1; type: biochemical; details: recombinant His-tagged human ACC1, 8 μg/mL; 60 min preincubation, 20 min reaction at 30° C.
T2 construct: made in house; host or cells: SF-9 insect cells (baculovirus, pFAST-BacHTc)
Experimental: as §1
A. Purification of Human ACC1
Human ACC1 cDNA was amplified from human liver cDNA by polymerase chain reaction using primers; 5′[…]3′ (SEQ ID NO. 1) and 5′[…]3′ (SEQ ID NO: 2). The amplified DNA fragment was digested by restriction enzyme SalI and NotI, and cloned into pFAST-BacHTc (Invitrogen). This plasmid DNA was used for preparation of recombinant vaculovirus with BAC-TO-BAC Baculovirus Expression System (Invitrogen).
SF-9 cells were infected with the vaculovirus and cultured at 27° C. for 3 days. Harvested cells were homogenized in buffer A (25 mM HEPES (pH7.5), 130 mM NaCl, 1 mM EDTA, 25 mM sodium glycerophosphate, 1 mM sodium orthovanadate, 10% glycerol, complete protease inhibitor), and subjected to ultracentrifuge at 185700×g for 50 min at 4° C. ACC1 protein with 6×His-tag at the N-terminal was purified from the supernatant using Ni-NTA Super Flow Gel (QIAGEN). Eluted protein was dialysed against buffer B (50 mM HEPES (pH 7.5), 300 mM NaCl, 10 mM MgCl2, 10 mM tripotassium citrate, 2 mM dithiothreitol) and concentrated using Vivaspin20 ultrafiltration tube (Sartorius).
as §2, §3, §4, §5, §6, §7

T1 sequence (O00763 117-2458 limits assumed): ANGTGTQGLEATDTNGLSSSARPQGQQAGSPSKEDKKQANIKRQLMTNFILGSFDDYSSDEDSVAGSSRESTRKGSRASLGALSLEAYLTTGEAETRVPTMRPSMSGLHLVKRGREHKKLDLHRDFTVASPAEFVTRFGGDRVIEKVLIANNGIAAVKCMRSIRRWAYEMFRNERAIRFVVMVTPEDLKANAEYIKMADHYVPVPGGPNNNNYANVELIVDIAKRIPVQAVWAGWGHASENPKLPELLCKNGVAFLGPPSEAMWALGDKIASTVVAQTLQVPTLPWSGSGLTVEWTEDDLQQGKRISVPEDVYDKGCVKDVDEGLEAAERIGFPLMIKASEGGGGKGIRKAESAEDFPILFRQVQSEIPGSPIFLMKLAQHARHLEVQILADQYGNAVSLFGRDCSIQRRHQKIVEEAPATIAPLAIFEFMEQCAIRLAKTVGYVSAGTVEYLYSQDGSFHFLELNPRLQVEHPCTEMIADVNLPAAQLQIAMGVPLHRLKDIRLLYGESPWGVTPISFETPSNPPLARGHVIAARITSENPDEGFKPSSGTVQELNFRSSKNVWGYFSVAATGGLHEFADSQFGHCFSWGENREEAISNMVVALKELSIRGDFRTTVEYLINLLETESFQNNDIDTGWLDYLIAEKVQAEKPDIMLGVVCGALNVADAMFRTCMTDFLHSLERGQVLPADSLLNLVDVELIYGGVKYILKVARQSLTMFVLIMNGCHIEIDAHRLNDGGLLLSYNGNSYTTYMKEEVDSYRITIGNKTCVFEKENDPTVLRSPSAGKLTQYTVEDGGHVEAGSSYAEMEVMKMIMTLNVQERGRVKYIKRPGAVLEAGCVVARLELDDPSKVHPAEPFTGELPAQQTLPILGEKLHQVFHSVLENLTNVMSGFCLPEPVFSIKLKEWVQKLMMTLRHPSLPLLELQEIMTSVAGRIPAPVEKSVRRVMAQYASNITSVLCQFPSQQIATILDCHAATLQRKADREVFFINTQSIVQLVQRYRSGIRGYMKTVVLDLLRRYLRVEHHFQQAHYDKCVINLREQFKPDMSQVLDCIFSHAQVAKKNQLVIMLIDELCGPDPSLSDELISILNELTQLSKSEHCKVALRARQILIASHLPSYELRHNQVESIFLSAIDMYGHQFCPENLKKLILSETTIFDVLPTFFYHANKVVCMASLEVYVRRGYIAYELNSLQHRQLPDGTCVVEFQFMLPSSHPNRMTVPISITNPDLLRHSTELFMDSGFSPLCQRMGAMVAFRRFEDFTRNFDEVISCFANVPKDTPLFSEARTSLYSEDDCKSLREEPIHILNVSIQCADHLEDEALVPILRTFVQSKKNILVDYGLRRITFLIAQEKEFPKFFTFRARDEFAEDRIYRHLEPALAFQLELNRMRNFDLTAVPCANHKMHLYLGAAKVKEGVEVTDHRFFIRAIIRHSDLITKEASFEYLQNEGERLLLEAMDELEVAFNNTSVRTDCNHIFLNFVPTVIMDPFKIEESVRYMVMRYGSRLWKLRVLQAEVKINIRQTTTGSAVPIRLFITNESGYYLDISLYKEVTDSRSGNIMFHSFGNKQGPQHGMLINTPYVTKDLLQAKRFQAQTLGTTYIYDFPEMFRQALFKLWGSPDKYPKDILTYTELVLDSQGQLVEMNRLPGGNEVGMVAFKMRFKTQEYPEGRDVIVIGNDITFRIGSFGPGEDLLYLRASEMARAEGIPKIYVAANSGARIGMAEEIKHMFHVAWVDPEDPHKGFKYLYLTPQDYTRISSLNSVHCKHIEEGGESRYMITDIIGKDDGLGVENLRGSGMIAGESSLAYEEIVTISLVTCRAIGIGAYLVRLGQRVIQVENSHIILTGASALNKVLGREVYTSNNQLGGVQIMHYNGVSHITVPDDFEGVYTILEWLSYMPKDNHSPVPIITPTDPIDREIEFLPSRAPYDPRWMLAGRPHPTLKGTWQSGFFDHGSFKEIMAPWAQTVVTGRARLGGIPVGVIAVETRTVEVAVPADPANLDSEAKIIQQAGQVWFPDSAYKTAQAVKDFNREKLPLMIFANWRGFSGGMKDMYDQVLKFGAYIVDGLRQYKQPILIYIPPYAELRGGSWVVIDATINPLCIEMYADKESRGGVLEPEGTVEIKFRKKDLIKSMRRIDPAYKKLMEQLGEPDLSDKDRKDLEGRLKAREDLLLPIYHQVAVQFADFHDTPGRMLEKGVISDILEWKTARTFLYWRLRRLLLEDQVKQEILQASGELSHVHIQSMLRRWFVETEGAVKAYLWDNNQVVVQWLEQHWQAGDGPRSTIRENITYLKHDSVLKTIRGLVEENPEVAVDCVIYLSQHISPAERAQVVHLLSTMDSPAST

SMILES	IC50 (Human ACC2)	IC50 (Human ACC1)
CCNC(=O)Nc1sc2ccccc2c1C(=O)N1CCC2(CC1)N=C(COCC(C)C)NC2=O [Compound 30, 1-ethyl-3-(3-(2-(isobutoxymethyl)-4-oxo-1,3,8-triazaspiro[4.5]dec-1-enecarbonyl)benzo[b]thiophen-2-yl)urea]	< 1 µM	1 to 10 µM
CCNC(=O)Nc1sc2c(OC)cccc2c1C(=O)N1CCC2(CC1)N=C(COCC(C)C)NC2=O [Compound 31, 1-ethyl-3-(3-(2-(isobutoxymethyl)-4-oxo-1,3,8-triazaspiro[4.5]dec-1-enecarbonyl)-7-methoxybenzo[b]thiophen-2-yl)urea]	< 1 µM	< 1 µM
CCNC(=O)Nc1sc2ccccc2c1C(=O)N1CCC2(CC1)N=C(Cn1cc(CN)nn1)NC2=O [Compound 34, 1-(3-(2-((4-(aminomethyl)-1 H-1,2,3-triazol-1-yl)methyl)-4-oxo-1,3,8-triazaspiro[4.5]dec-1-enecarbonyl)benzo[b]thiophen-2-yl)-3-ethylurea]	> 10 µM	> 10 µM
CCNC(=O)Nc1sc2ccccc2c1C(=O)N1CCC2(CC1)N=C(Cn1cc(CN(C)C)nn1)NC2=O [Compound 35, 1-(3-(2-((4-((dimethylamino)methyl)-1 H-1,2,3-triazol-1-yl)methyl)-4-oxo-1,3,8-triazaspiro[4.5]dec-1-enecarbonyl)benzo[b]thiophen-2-yl)-3-ethylurea]	1 to 10 µM	> 10 µM
CCNC(=O)Nc1sc2ccccc2c1C(=O)N1CCC2(CC1)N=C(Cn1cc(CO)nn1)NC2=O [Compound 37, 1-ethyl-3-(3-(2-((4-(hydroxymethyl)-1 H-1,2,3-triazol-1-yl)methyl)-4-oxo-1,3,8-triazaspiro[4.5]dec-1-enecarbonyl)benzo[b]thiophen-2-yl)urea]	1 to 10 µM	> 10 µM

Continued, values first:

IC50 (Human ACC2)	IC50 (Human ACC1)	SMILES
< 1 µM	> 10 µM	CCNC(=O)Nc1sc2ccccc2c1C(=O)N1CCC2(CC1)N=C(COc1ccccc1C(N)=O)NC2=O [Compound 27, 2-((8-(2-(3-ethylureido)benzo[b]thiophene-3-carbonyl)-4-oxo-1,3,8-triazaspiro[4.5]dec-1-en-2-yl)methoxy)benzamide]
< 1 µM	1 to 10 µM	CCNC(=O)Nc1sc2ccccc2c1C(=O)N1CCC2(CC1)N=C(COC1CCCCC1)NC2=O [Compound 28, 1-(3-(2-(cyclohexyloxymethyl)-4-oxo-1,3,8-triazaspiro[4.5]dec-1-enecarbonyl)benzo[b]thiophen-2-yl)-3-ethylurea]
1 to 10 µM	1 to 10 µM	CCNC(=O)Nc1sc2ccccc2c1C(=O)N1CCC2(CC1)N=C(COC(C)C)NC2=O [Compound 29, 1-ethyl-3-(3-(2-(isopropoxymethyl)-4-oxo-1,3,8-triazaspiro[4.5]dec-1-enecarbonyl)benzo[b]thiophen-2-yl)urea]
< 1 µM	< 1 µM	CCNC(=O)Nc1sc2c(OC)cccc2c1C(=O)N1CCC2(CC1)N=C(COC1CCCCC1)NC2=O [Compound 32, 1-(3-(2-(cyclohexyloxymethyl)-4-oxo-1,3,8-triazaspiro[4.5]dec-1-enecarbonyl)-7-methoxybenzo[b]thiophen-2-yl)-3-ethylurea]
1 to 10 µM	> 10 µM	CCNC(=O)Nc1sc2ccccc2c1C(=O)N1CCC2(CC1)N=C(Cn1ccccc1=O)NC2=O [Compound 33, 1-ethyl-3-(3-(4-oxo-2-((2-oxopyridin-1(2 H)-yl)methyl)-1,3,8-triazaspiro[4.5]dec-1-enecarbonyl)benzo[b]thiophen-2-yl)urea]
< 1 µM	1 to 10 µM	CCNC(=O)Nc1sc2ccccc2c1C(=O)N1CCC2(CC1)N=C(Cn1cc(C(C)(C)C)nn1)NC2=O [Compound 36, 1-(3-(2-((4-tert-butyl-1 H-1,2,3-triazol-1-yl)methyl)-4-oxo-1,3,8-triazaspiro[4.5]dec-1-enecarbonyl)benzo[b]thiophen-2-yl)-3-ethylurea]
< 1 µM	1 to 10 µM	CCNC(=O)Nc1sc2ccccc2c1C(=O)N1CCC2(CC1)N=C(Cn1cc(C3CC3)nn1)NC2=O [Compound 38, 1-(3-(2-((4-cyclopropyl-1 H-1,2,3-triazol-1-yl)methyl)-4-oxo-1,3,8-triazaspiro[4.5]dec-1-enecarbonyl)benzo[b]thiophen-2-yl)-3-ethylurea]

— patent US7981904B2, “Acetyl CoA carboxylase inhibitors” (Takeda Pharmaceutical Company Limited, priority 2008, dated 2011)
